Results on one substance are retold here after patent US20260200903A1, “PHARMACEUTICAL COMPOSITION FOR AMELIORATING MALIGNANT DISEASES” (KINKI UNIVERSITY, priority 2020, published 2026).

Holding throughout (type): cell-based
The subject of assay [1] is Raji cells. In words: Cell death-inducing effect of rituximab in Raji cells, trypan blue staining. Particulars: cell viability. An excerpt: (§1) Referring to FIG. 7, the horizontal axis is the rituximab concentration (μg/mL) and the vertical axis is the cell viability (%). […] However, the cell viability was clearly higher in RR1 cells, confirming that they are resistant to rituximab.

Assay [2] relates to RR1 cells. Briefly: Cell death-inducing effect of rituximab in RR1 cells, trypan blue staining.
Excerpt: Raji cells, a burkitt lymphoma cell line, were modified to be rituximab-resistant and named RR1 cells.
as §1

Assay [3] has as its system KMS-28BM cells. In words: Cell death in KMS-28BM cells by each compound in combination with rituximab, trypan blue staining. Particulars: 10 days with 0.1 M9, 0.01 μM M14/M15/M16, 0.5 μM M18/M19, then human serum and rituximab. How it is done: As a control, compounds untreated KMS-28BM cells were seeded in 75 cm^2 flasks and incubated for 10 days at 37° C. and 5% CO2. KMS-28BM cells were seeded into 75 cm^2 flasks and pre-cultured for 24 h. After incubation, KMS-28BM cells were treated with […], 0.01 μM M14, 0.01 μM M15, 0.01 μM M16, 0.5 μM M18, and 0.5 μM M19 at final concentrations, and incubated for 10 days at 37° C. and 5% CO2. This added amount is a concentration lower than the IC50 of the above compounds for KMS-28BM cells.
After 10 days of incubation, cells were seeded into 96-well plates, human serum and 10 µg/mL rituximab were added, and cell viability was determined by the trypan blue staining.
For controls, only 0.5% DMSO (diluted in PBS) used to dissolve the compounds was added.

As to “rituximab: an anti-CD20 monoclonal antibody”, the “IC50 of Raji cells to rituximab” value in assay [1] turned out to be 0.121 µg/mL. In addition, the “IC50 of RR1 cells to rituximab” value in assay [2] (RR1 cells, cell viability) was determined as 98 µg/mL. Moreover, the “resistance of RR1 cells to rituximab relative to Raji cells” value in assay [2] (ratio of IC50 RR1 / Raji) is given as “approximately 809 times”. Further, the “cell death induction compared to control” value in assay [3] is “did not induce cell death”.
